Laboratory results: patent publication US8383352B2, “Detection of maternal alcohol exposure” (Northwestern University, priority 2009, dated 2013)

Columns and labels:
Dio3 [1] = conditions: fetal and adult frontal cortex and hippocampus; thyroid hormone levels inversely affected
Dio3 [2] = conditions: in utero exposure to ethanol; Western blot, normalized to β-actin; pregnant Sprague-Dawley dams, last two weeks of gestation
TRα = conditions: in utero exposure to ethanol; Western blot, normalized to β-actin; pregnant Sprague-Dawley dams, last two weeks of gestation
GR = conditions: in utero exposure to ethanol; Western blot, normalized to β-actin; pregnant Sprague-Dawley dams, last two weeks of gestation
Gsα = conditions: in utero exposure to ethanol; Western blot, normalized to β-actin; pregnant Sprague-Dawley dams, last two weeks of gestation

## CCO [ethanol]
Dio3 [1]
  Dio3 imprinting and total expression patterns: alters
Dio3 [2]
  Dio3 protein levels in placenta: up-regulation
TRα
  TRα protein levels in placenta: down-regulation
GR
  GR protein levels in placenta: down-regulation
Gsα
  Gsα protein levels in placenta: up-regulation
